Laboratory results: PubChem BioAssay AID248 (DTP/NCI, 2004)
Toxic doses and inconclusive results are not listed. Rule as the data show it: active = T/C of 150% or more; inactive = T/C below 125%. Square brackets hold non-standard residues; d marks the D form. Peptide text beside a SMILES is read from it. * marks the point of attachment. Cbz = O=C(OCc1ccccc1)*; OBn = c1ccc(CO*)cc1; Sar = CNCC(=O)O

Tested on: L1210 leukemia ip in BDF1 mice, survival T/C
Experiment: NCI In Vivo Anticancer Drug Screen. Data for tumor model L1210 Leukemia (intraperitoneal) in B6D2F1 (BDF1) mice
Settings: endpoint: mean survival time, higher = longer survival
Procedure, shortened: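 Tumor cells were implanted, animals were treated, and survival was followed. The result divides the treated measurement by the vehicle-control measurement.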

[1] = dose: 100.0 mg/kg/injection, schedule: Q04DX002 (ip), vehicle: Klucel (hydroxypropylcellulose) (HPC)
[2] = dose: 200.0 mg/kg/injection, schedule: Q04DX002 (ip), vehicle: Klucel (hydroxypropylcellulose) (HPC)
[3] = dose: 400.0 mg/kg/injection, schedule: Q04DX002 (ip), vehicle: Klucel (hydroxypropylcellulose) (HPC)
[4] = dose: 100.0 mg/kg/injection, schedule: Q01DX009 (ip), vehicle: saline with Tween-80
[5] = dose: 100.0 mg/kg/injection, schedule: Q01DX001 (ip), vehicle: saline
[6] = dose: 25.0 mg/kg/injection, schedule: Q01DX001 (ip), vehicle: saline
[7] = dose: 100.0 mg/kg/injection, schedule: Q04DX003 (ip), vehicle: saline with Tween-80
[8] = dose: 200.0 mg/kg/injection, schedule: Q01DX009 (ip), vehicle: saline with Tween-80
[9] = dose: 200.0 mg/kg/injection, schedule: Q04DX003 (ip), vehicle: saline with Tween-80
[10] = dose: 400.0 mg/kg/injection, schedule: Q01DX009 (ip), vehicle: saline with Tween-80
[11] = dose: 400.0 mg/kg/injection, schedule: Q04DX003 (ip), vehicle: saline with Tween-80
[12] = dose: 100.0 mg/kg/injection, schedule: Q01DX009 (ip), vehicle: Klucel (hydroxypropylcellulose) (HPC)
[13] = dose: 100.0 mg/kg/injection, schedule: Q04DX003 (ip), vehicle: Klucel (hydroxypropylcellulose) (HPC)
[14] = dose: 200.0 mg/kg/injection, schedule: Q01DX009 (ip), vehicle: Klucel (hydroxypropylcellulose) (HPC)
[15] = dose: 200.0 mg/kg/injection, schedule: Q04DX003 (ip), vehicle: Klucel (hydroxypropylcellulose) (HPC)
[16] = dose: 400.0 mg/kg/injection, schedule: Q04DX003 (ip), vehicle: Klucel (hydroxypropylcellulose) (HPC)

Measured: T/C

Cc1ccc([N+](=O)[O-])cc1NC(=O)OCC1CCCO1 (centres undefined)
inactive: [1] 87 % of control | [2] 87 % of control | [3] 97 % of control

CN(CCO)Cc1ccc2ccccc2c1
inactive: dose: 150.0 mg/kg/injection, schedule: Q01DX015 (ip), vehicle: saline 92 % of control

CCCCCCCCCCCCSC1=C(Cl)C(=O)C(OC)=C(OC)C1=O
inactive: dose: 3.12 mg/kg/injection, schedule: Q01DX009 (ip), vehicle: saline with Tween-80 100 % of control | dose: 6.25 mg/kg/injection, schedule: Q01DX009 (ip), vehicle: saline with Tween-80 93 % of control | dose: 12.5 mg/kg/injection, schedule: Q01DX009 (ip), vehicle: saline with Tween-80 94 % of control | dose: 25.0 mg/kg/injection, schedule: Q01DX009 (ip), vehicle: saline with Tween-80 96 % of control | dose: 50.0 mg/kg/injection, schedule: Q01DX009 (ip), vehicle: saline with Tween-80 100 % of control | [4] 94 % of control

Cc1ccc(S(=O)(=O)Nc2ccccc2N=Cc2ccc([N+](=O)[O-])cc2[N+](=O)[O-])cc1
inactive: dose: 75.0 mg/kg/injection, schedule: Q01DX001 (ip), vehicle: carboxymethylcellulose (CMC) 97 % of control | dose: 150.0 mg/kg/injection, schedule: Q01DX001 (ip), vehicle: carboxymethylcellulose (CMC) 104 % of control | dose: 300.0 mg/kg/injection, schedule: Q01DX001 (ip), vehicle: carboxymethylcellulose (CMC) 92 % of control

COC(=O)/C=C\C(=O)NC(C)(C)CC(C)(C)C
inactive: dose: 50.0 mg/kg/injection, schedule: Q01DX001 (ip), vehicle: carboxymethylcellulose (CMC) 100 % of control | dose: 100.0 mg/kg/injection, schedule: Q01DX001 (ip), vehicle: carboxymethylcellulose (CMC) 105 % of control | dose: 200.0 mg/kg/injection, schedule: Q01DX001 (ip), vehicle: carboxymethylcellulose (CMC) 105 % of control | dose: 400.0 mg/kg/injection, schedule: Q01DX001 (ip), vehicle: carboxymethylcellulose (CMC) 96 % of control

O=C(NCCCl)NC1CS(=O)(=O)CS(=O)(=O)C1
inactive: dose: 75.0 mg/kg/injection, schedule: Q01DX001 (ip), vehicle: other 104 % of control

O=C(OC1COC(Br)C(OC(=O)c2ccc([N+](=O)[O-])cc2)C1OC(=O)c1ccc([N+](=O)[O-])cc1)c1ccc([N+](=O)[O-])cc1 (centres undefined)
inactive: [5] 98 % of control | dose: 200.0 mg/kg/injection, schedule: Q01DX001 (ip), vehicle: saline 96 % of control | dose: 400.0 mg/kg/injection, schedule: Q01DX001 (ip), vehicle: saline 91 % of control

CCCCOP(=O)(Nc1ccccc1)OCCCC
inactive: dose: 100.0 mg/kg/injection, schedule: Q04DX002 (sc), vehicle: olive oil, sesame oil, peanut oil 103 % of control | dose: 200.0 mg/kg/injection, schedule: Q04DX002 (sc), vehicle: olive oil, sesame oil, peanut oil 103 % of control | dose: 400.0 mg/kg/injection, schedule: Q04DX002 (sc), vehicle: olive oil, sesame oil, peanut oil 90 % of control

O=C(O)C1Nc2ccccc2NC1=O (centres undefined)
inactive: dose: 100.0 mg/kg/injection, schedule: Q01DX001 (ip), vehicle: Klucel (hydroxypropylcellulose) (HPC) 100 % of control | dose: 200.0 mg/kg/injection, schedule: Q01DX001 (ip), vehicle: Klucel (hydroxypropylcellulose) (HPC) 94 % of control | dose: 400.0 mg/kg/injection, schedule: Q01DX001 (ip), vehicle: Klucel (hydroxypropylcellulose) (HPC) 106 % of control

CCCCc1c(C)nc(N)nc1N
inactive: dose: 3.12 mg/kg/injection, schedule: Q01DX001 (ip), vehicle: Klucel (hydroxypropylcellulose) (HPC) 105 % of control | dose: 6.25 mg/kg/injection, schedule: Q01DX001 (ip), vehicle: Klucel (hydroxypropylcellulose) (HPC) 110 % of control | dose: 12.5 mg/kg/injection, schedule: Q01DX001 (ip), vehicle: Klucel (hydroxypropylcellulose) (HPC) 111 % of control | [6] 98 % of control

COC(=O)C(Br)CCBr (centres undefined)
inactive: [4] 94 % of control | [7] 94 % of control | [8] 95 % of control | [9] 101 % of control | [10] 100 % of control | [11] 105 % of control

Cc1ccc(S(=O)(=O)OC2CC3c4ccccc4C2c2cccc[n+]23)cc1 (centres undefined)
inactive: dose: 12.5 mg/kg/injection, schedule: Q01DX001 (ip), vehicle: saline 103 % of control | [6] 115 % of control | dose: 25.0 mg/kg/injection, schedule: Q04DX003 (ip), vehicle: saline 99 % of control | dose: 50.0 mg/kg/injection, schedule: Q01DX001 (ip), vehicle: saline 110 % of control | dose: 50.0 mg/kg/injection, schedule: Q04DX003 (ip), vehicle: saline 94 % of control | [5] 105 % of control

O=C(NCCc1ccccc1)C(Cl)Cl
inactive: dose: 50.0 mg/kg/injection, schedule: Q01DX009 (ip), vehicle: Klucel (hydroxypropylcellulose) (HPC) 93 % of control | [12] 93 % of control | [13] 103 % of control | [14] 94 % of control | [15] 95 % of control | [16] 101 % of control

O=C(COc1ccc(Cl)cc1Cl)Nc1c(Cl)cc(Cl)cc1Cl
inactive: [1] 99 % of control | [2] 108 % of control | [3] 86 % of control

CC(C)C[CH2][Pb]([CH2]CC(C)C)([CH2]CC(C)C)[O]C(=O)C(C)C
inactive: dose: 1.56 mg/kg/injection, schedule: Q01DX009 (ip), vehicle: Klucel (hydroxypropylcellulose) (HPC) 97 % of control | dose: 3.12 mg/kg/injection, schedule: Q01DX009 (ip), vehicle: Klucel (hydroxypropylcellulose) (HPC) 93 % of control | dose: 3.12 mg/kg/injection, schedule: Q04DX002 (ip), vehicle: Klucel (hydroxypropylcellulose) (HPC) 111 % of control | dose: 6.25 mg/kg/injection, schedule: Q04DX002 (ip), vehicle: Klucel (hydroxypropylcellulose) (HPC) 115 % of control

CC(C)CCOC(c1ccc2c(c1)OCO2)C(C)Br (centres undefined)
inactive: [7] 94 % of control | [9] 87 % of control | [11] 94 % of control

COc1ccccc1/C=C/C(=O)O
inactive: dose: 25.0 mg/kg/injection, schedule: Q04DX002 (ip), vehicle: Klucel (hydroxypropylcellulose) (HPC) 98 % of control | dose: 50.0 mg/kg/injection, schedule: Q04DX002 (ip), vehicle: Klucel (hydroxypropylcellulose) (HPC) 100 % of control | [1] 88 % of control

CC(C)(C)Cc1cc(O)c2c(c1O)C(=O)c1ccccc1C2=O
inactive: [4] 98 % of control | [7] 97 % of control | [8] 98 % of control | [9] 97 % of control | [10] 96 % of control | [11] 92 % of control

OC1CCC(CC2CCCCC2)CC1 (centres undefined)
inactive: [9] 92 % of control | [11] 91 % of control

CCOC(=O)Nc1nc(Cl)c(Cl)nc1Cl
inactive: dose: 25.0 mg/kg/injection, schedule: Q01DX009 (ip), vehicle: water 93 % of control | dose: 50.0 mg/kg/injection, schedule: Q01DX009 (ip), vehicle: water 102 % of control | dose: 100.0 mg/kg/injection, schedule: Q01DX009 (ip), vehicle: water 98 % of control | dose: 200.0 mg/kg/injection, schedule: Q01DX009 (ip), vehicle: water 91 % of control | dose: 400.0 mg/kg/injection, schedule: Q01DX009 (ip), vehicle: water 96 % of control

CN(CC(=O)OCc1ccccc1)C(=O)CNC(=O)CNC(=O)OCc1ccccc1 (Cbz-Gly-Gly-[Sar]-OBn)
inactive: [7] 92 % of control | [9] 90 % of control | [11] 95 % of control

COc1cc(Br)c2c(c1OC)C(=O)CC2
inactive: [12] 94 % of control | [13] 98 % of control | [14] 96 % of control | [15] 96 % of control | dose: 400.0 mg/kg/injection, schedule: Q01DX009 (ip), vehicle: Klucel (hydroxypropylcellulose) (HPC) 98 % of control | [16] 91 % of control

CC(C)(CO)N=Cc1ccccc1O
inactive: dose: 25.0 mg/kg/injection, schedule: Q04DX003 (ip), vehicle: Klucel (hydroxypropylcellulose) (HPC) 96 % of control | dose: 50.0 mg/kg/injection, schedule: Q04DX003 (ip), vehicle: Klucel (hydroxypropylcellulose) (HPC) 104 % of control | [13] 96 % of control

c1ccc([P+](c2ccccc2)(c2ccccc2)c2ccc(-c3ccc([P+](c4ccccc4)(c4ccccc4)c4ccccc4)cc3)cc2)cc1
inactive: dose: 1.25 mg/kg/injection, schedule: Q01DX009 (ip), vehicle: Klucel (hydroxypropylcellulose) (HPC) 102 % of control | dose: 3.5 mg/kg/injection, schedule: Q01DX009 (ip), vehicle: Klucel (hydroxypropylcellulose) (HPC) 105 % of control
